From patent publication US7671054B1, “Reverse-turn mimetics and method relating thereto” (Choongwae Pharma Corporation, priority 2001, dated 2010)
≈ marks a conversion by molar mass, not a printed value. Entries after “also recorded” stand apart in the source; their conditions may differ.

What was measured:
[1] = system: GAP-43 in PC-12 PS-1/L286V cells; experiment: GAP-43 immunofluorescence; assay type: cell-based, Rat; conditions: PS-1/L286V mutant PC-12 cells; 10 μM
Protocol: Immunofluorescence. Cells were plated at a density of 10,000 cells/cm^2 on sterile coated 22×22 mm coverslips in a 6-well culture plate. Differentiation was initiated, as previously described, for 10 days. The differentiated cells were then fixed in methanol for 15 minutes at −20° C. This is followed by a 15 minutes incubation with PBS+0.1% Triton X-100. The coverslips were incubated with antibodies raised against Ephrin B2 Receptor (Santa Cruz Biotechnology) and Gap-43 (Novus Biologicals) for 40 minutes at 37° C. After a series of washes with PBS-Triton X-100, secondary antibody conjugated to FITC (Jackson ImmunoResearch, Westgrove, Pa.) was applied. All slides images were acquired using a Nikon PCM2000 Laser Scanning Confocal Microscope mounted on a Nikon Eclipse E600 upright microscope (Nikon, Melville, N.Y.).

caspase 3 = experiment: Caspase 3 activity in cultured tumor cells; assay type: cell-based
SW480 cells = experiment: Flow cytometric analysis (FACS) of cell cycle; assay type: cell-based; conditions: 25 μM, 24 hours
Protocol: (§1) For FACS analysis, approx. 5×10^6 cells from Compound D-treated or vehicle-treated were fixed with 70% chilled ethanol and stored at −20° C. for at least 30 minutes. The cells were washed once with 1×PBS and incubated with propidium iodine (PI) solution (85 μg/ml propidium iodine, 0.1% Nonidet P-40, 10 mg/ml RNAse) for 30 minutes at room temperature. 10,000 stained cells for each sample were acquired using Beckman Coulter EPICS XL-MCL Flow Cytometry and the percentage of cells in different phase of the cell cycle was determined by Expo32 ADC software (Coulter Corporation, Miami, Fla., 33196).
(§2) It has been shown that inhibition of the expression of the cyclin D1 gene causes arrest at the G1/S-phase of the cell cycle (Shintani et al., “Infrequent alternations of RB pathway (Rb-p16INK4A-cyclin D1) in adenoid cystic carcinoma of salivary glands,” Anticancer Res. 20:2169-75 (2000)). […] The cells were subsequently stained with propidium iodide (PI) and analyzed for DNA content by FACS cytofluorometry.

HCT116 cells = experiment: Flow cytometric analysis (FACS) of cell cycle; assay type: cell-based; conditions: 25 μM, 24 hours
Protocol: as §1, §2

[2] = system: PC-12 cells overexpressing mutant PS-1/L286V; experiment: Neuronal differentiation and quantitation of neurite outgrowth; assay type: cell-based, Rat; conditions: PS-1/L286V mutant PC-12 cells
Protocol: Cell Differentiation. Cell culture dishes were pre-coated overnight with 0.25 mg/ml collagen (Cohesion, Calif.), 10 μg/ml Poly-L-Lysine (Sigma-Aldrich, St. Louis, Mo.) and 12 μg/ml Polyethyleneimine (ICN, La Mesa, Calif.). Cells were cultured on coated dishes at 15,000 cells/cm^2, and differentiated into a neuron-like phenotype by incubation in medium with reduced serum (1% fetal bovine serum), containing 50 ng/ml nerve growth factor (NGF) (Sigma-Aldrich) for 10 days. NGF-containing medium was changed every 2-3 days.
Differentiated PC-12/L286V cells were treated with increasing concentrations of this compound for 4 hours. Transfection was then initiated after this treatment period.
Quantitation of Neurite Outgrowth. Cell counts were taken from six randomly chosen microscopic fields (10×). […] The number of cells with such outgrowths was then expressed as a percentage of the total number of cells. Values obtained were from duplicates of three independent experiments.

T84 = experiment: Sulforhodamine B (SRB) assay; assay type: cell-based; conditions: Homo sapiens; T84, Colon; 48 hours; read-out: GI50 (SRB in vitro cytotoxicity)
Protocol: (§3) Growth inhibitory effect of Compound A on the cells listed below was measured by the sulforhodamine B assay. SW480 cells in 100 μl media were plated in each well of 96-well plate and allowed to attach for 24 hours. Compound A was added to the wells to produce the desired final concentrations, and the plates were incubated at 37° C. for 48 hours. The cells were then fixed by gentle addition of 100 μl of cold (4° C.) 10% trichloroacetic acid to each well, followed by incubation at 4° C. for 1 hour. Plates were washed with deionized water five times and allowed to air dry. The cells were then stained by addition of 100 μl SRB solution (0.4% SRB(w/v) in 1% acetic acid (v/v)) to wells for 15 min. After staining, the plates were quickly washed five times with 1% acetic acid to remove any unbound dye, and allowed to air dry. Bound dye was solubilized with 10 mmol/L Tris base (pH 10.5) prior to reading the plates. The optical density (OD) was read on a plate reader at a wavelength of 515 nm with Molecular Device. Inhibition of growth was expressed as relative viability (% of control) and GI50 was calculated from concentration-response curves after log/probit transformation.

PC3 = experiment: Sulforhodamine B (SRB) assay; assay type: cell-based; conditions: Homo sapiens, PC-3; PC3, Prostate; 48 hours; read-out: GI50 (SRB in vitro cytotoxicity)
Protocol: as §3

MCF7 = experiment: Sulforhodamine B (SRB) assay; assay type: cell-based; conditions: Homo sapiens; MCF7, Breast; 48 hours; read-out: GI50 (SRB in vitro cytotoxicity)
Protocol: as §3

HL60 = experiment: Sulforhodamine B (SRB) assay; assay type: cell-based; conditions: Homo sapiens, HL-60; HL60, Leukemia; 48 hours; read-out: GI50 (SRB in vitro cytotoxicity)
Protocol: as §3

KM12 = experiment: Sulforhodamine B (SRB) assay; assay type: cell-based; conditions: Homo sapiens; KM12, Colon; 48 hours; read-out: GI50 (SRB in vitro cytotoxicity)
Protocol: as §3

K562 = experiment: Sulforhodamine B (SRB) assay; assay type: cell-based; conditions: Homo sapiens; K562, Leukemia; 48 hours; read-out: GI50 (SRB in vitro cytotoxicity)
Protocol: as §3

CAKI-1 = experiment: Sulforhodamine B (SRB) assay; assay type: cell-based; conditions: Homo sapiens; CAKI-1, Renal; 48 hours; read-out: GI50 (SRB in vitro cytotoxicity)
Protocol: as §3

A375 = experiment: Sulforhodamine B (SRB) assay; assay type: cell-based; conditions: Homo sapiens, A-375; A375, Melanoma; 48 hours; read-out: GI50 (SRB in vitro cytotoxicity)
Protocol: as §3

NCI H23 = experiment: Sulforhodamine B (SRB) assay; assay type: cell-based; conditions: Homo sapiens; NCI H23, Lung; 48 hours; read-out: GI50 (SRB in vitro cytotoxicity)
Protocol: as §3

G361 = experiment: Sulforhodamine B (SRB) assay; assay type: cell-based; conditions: Homo sapiens, G-361; G361, Melanoma; 48 hours; read-out: GI50 (SRB in vitro cytotoxicity)
Protocol: as §3

DLD-1 = experiment: Sulforhodamine B (SRB) assay; assay type: cell-based; conditions: Homo sapiens; DLD-1, Colon; 48 hours; read-out: GI50 (SRB in vitro cytotoxicity)
Protocol: as §3

| SMILES | GAP-43 staining [1] | caspase 3 activity, co-treatment (caspase 3; co-treatment of stausporine (0.5 μM) and Compound D) | caspase 3 activity (caspase 3; cultured tumor cells, 2.5 μM or 5.0 μM) | cell cycle distribution (PI, FACS) (SW480 cells) | cell cycle distribution (PI, FACS) (HCT116 cells) | percentage of cells bearing neurites greater than twice the length of the cell body ([2]; 10 μM) | neurite outgrowth and differentiation ([2]; 10 μM plus NGF, 10 days) | GI50 (T84) | GI50 (PC3) | GI50 (MCF7) | GI50 (HL60) | GI50 (KM12) | GI50 (K562) | GI50 (CAKI-1) | GI50 (A375) | GI50 (NCI H23) | GI50 (G361) | GI50 (DLD-1) |
| --- | --- | --- | --- | --- | --- | --- | --- | --- | --- | --- | --- | --- | --- | --- | --- | --- | --- | --- |
| O=C1[C@H](Cc2ccc(O)cc2)N2C(=O)CCN(C(=O)NCc3ccccc3)[C@H]2CN1Cc1cccc2ccccc12 [Compound D] | significantly elevated | synergic stimuation of the caspase 3 activity | activates the caspase 3 activity | increased accumulation at G1/S-phase of the cell cycle; also recorded: arrests cells in G1 | increased accumulation at G1/S-phase of the cell cycle; also recorded: arrests cells in G1 | substantially increased the percentage of cells bearing neurites; also recorded: significantly increased | essentially normal neurite outgrowth and differentiation; also recorded: phenotypically corrects deficient neuronal differentiation |  |  |  |  |  |  |  |  |  |  |  |
| O=c1[nH]cc(F)c(=O)[nH]1 [Compound 5-FU, 5-fluorouracil] |  |  |  |  |  |  |  | 1.82 µg/mL (≈ 14 µM) | > 10 µg/mL | 1.75 µg/mL (≈ 13.5 µM) | 7.01 µg/mL (≈ 53.9 µM) | 2.73 µg/mL (≈ 21 µM) | 6.13 µg/mL (≈ 47.1 µM) | 0.925 µg/mL (≈ 7.11 µM) | 1.46 µg/mL (≈ 11.3 µM) | 2.25 µg/mL (≈ 17.3 µM) | 1.54 µg/mL (≈ 11.8 µM) | > 10 µg/mL |
